{"source": "patent US20200009121A1", "about": "“Purpose for Soothing Brain Disorders of Patients from Drug Detoxification Using Biperiden HCL” (priority 2018, published 2020)", "test_system": "brain disorders of patients from drug detoxification", "experiment": "Biperiden Hcl given to patients after block-out of poisoning pathway (drug detoxification) treatment", "assay_type": "in vivo", "conditions": "dose 10 mg/ml", "protocol": "A Biperiden Hcl 10 medicine of the disclosure is a cure of Parkinson's disease and can reduce effect of acetylcholine of Extrapyramidal Symptoms (EPS) on it to further decrease excitement of central nervous. […] With reference to FIG. 1, a Biperiden Hcl 10 medicine is applied after patients are treated with block-out of poisoning pathway, wherein poisoning pathway treatment 20 can adapt intravenous drip prescription 30 disclosed in U.S. utility patent application Ser. No.10/004,781 owned by the inventor(s) and purpose treatment thereof, providing the intravenous drip prescription 30 to patients. The intravenous drip prescription 30 comprises a plurality of ingredients consisting of Cerebrolysin, Piracetam, Cimetidine, Scopolamine Butylbromide, Nefopam, B. C Complex, Vitamin B1, Ascorbic acid, Ketorolac, Guronsan, Hyoscien Butylbromide, and Sukerin. After a patient is dealt with poisoning pathway treatment 20, a dose (10 mg/ml) of Biperiden Hcl 10 is provided to the patient to sooth brain disorder of the patient from the poisoning pathway treatment 20 of the patient, capable of rapidly recovering consciousness and normal physiological state.", "note": "Structures can show the parent of a compound that is named as a salt.", "data": [{"smiles": "OC(CCN1CCCCC1)(c1ccccc1)C1CC2C=CC1C2", "note": "(stereo not shown) [Biperiden Hcl]", "values": [{"measurement": "soothing brain disorders of patients and recovering consciousness and normal physiological state", "value": "excellent effect of soothing brain disorders of patients and recovering consciousness and normal physiological state"}]}]}
